In ChEMBL document CHEMBL3217615, “Novel 3,5-bis(arylidiene)-4-piperidone based monocarbonyl analogs of curcumin: anticancer activity evaluation and mode of action study” (2014):

Key:
Type in all cases: functional
[1] = Growth inhibition of human OVCAR3 cells assessed as cell growth at 10^-6 M after 48 hrs by sulforhodamine B assay; conditions: OVCAR-3, 48 h, read-out: Activity
[2] = Growth inhibition of human UACC62 cells assessed as cell growth at 10^-6 M after 48 hrs by sulforhodamine B assay; conditions: UACC-62, 48 h, read-out: Activity
Malme-3M [3] = assay: Growth inhibition of human MALME-3M cells assessed as cell growth at 10^-6 M after 48 hrs by sulforhodamine B assay; conditions: read-out: Activity
[4] = Growth inhibition of human SF539 cells assessed as cell growth at 10^-6 M after 48 hrs by sulforhodamine B assay; conditions: SF-539, 48 h, read-out: Activity
HCT-116 = assay: Growth inhibition of human HCT116 cells assessed as cell growth at 10^-6 M after 48 hrs by sulforhodamine B assay; conditions: HCT-116, 48 h, read-out: Activity
HOP-62 [5] = assay: Growth inhibition of human HOP62 cells assessed as cell growth at 10^-6 M after 48 hrs by sulforhodamine B assay; conditions: HOP-62, 48 h, read-out: Activity
MCF7 = assay: Growth inhibition of human MCF7 cells assessed as cell growth at 10^-7 M after 48 hrs by sulforhodamine B assay; conditions: MCF7, 48 h, read-out: Activity
A498 = assay: Growth inhibition of human A498 cells assessed as cell growth at 10^-7 M after 48 hrs by sulforhodamine B assay; conditions: A498, 48 h, read-out: Activity
MDA-MB-468 = assay: Growth inhibition of human MDA-MB-468 cells assessed as cell growth at 10^-6 M after 48 hrs by sulforhodamine B assay; conditions: MDA-MB-468, 48 h, read-out: Activity
MDA-MB-231 = assay: Growth inhibition of human MDA-MB-231 cells assessed as cell growth at 10^-6 M after 48 hrs by sulforhodamine B assay; conditions: MDA-MB-231, 48 h, read-out: Activity
ACHN = assay: Growth inhibition of human ACHN cells assessed as cell growth at 10^-6 M after 48 hrs by sulforhodamine B assay; conditions: read-out: Activity
[6] = Growth inhibition of human NCI-ADR-RES cells assessed as cell growth at 10^-6 M after 48 hrs by sulforhodamine B assay; conditions: read-out: Activity
[7] = Growth inhibition of human OVCAR8 cells assessed as cell growth at 10^-6 M after 48 hrs by sulforhodamine B assay; conditions: OVCAR-8, 48 h, read-out: Activity
[8] = Growth inhibition of human OVCAR4 cells assessed as cell growth at 10^-4 M after 48 hrs by sulforhodamine B assay; conditions: OVCAR-4, 48 h, read-out: Activity
[9] = Growth inhibition of human LOXIMVI cells assessed as cell growth at 10^-4 M after 48 hrs by sulforhodamine B assay; conditions: LOX IMVI, read-out: Activity
SNB-75 [10] = assay: Growth inhibition of human SNB75 cells assessed as cell growth at 10^-4 M after 48 hrs by sulforhodamine B assay; conditions: SNB-75, 48 h, read-out: Activity
NCI-H322M = assay: Growth inhibition of human NCI-H322M cells assessed as cell growth at 10^-4 M after 48 hrs by sulforhodamine B assay; conditions: read-out: Activity
M14 = assay: Growth inhibition of human M14 cells assessed as cell growth at 10^-8 M after 48 hrs by sulforhodamine B assay; conditions: M14, 48 h; for growth at 0.01 µM: read-out: Activity; for CC50: read-out: pLC50 (the source's name) (converted); for TGI: read-out: pTGI (converted)
HOP-62 [11] = assay: Growth inhibition of human HOP62 cells assessed as cell growth at 10^-8 M after 48 hrs by sulforhodamine B assay; conditions: HOP-62, 48 h; for growth at 0.01 µM: read-out: Activity; for TGI: read-out: pTGI (converted)
[12] = Growth inhibition of human OVCAR8 cells after 48 hrs by sulforhodamine B assay; conditions: OVCAR-8, 48 h; for CC50: read-out: LC50 (the source's name)
[13] = Growth inhibition of human OVCAR5 cells after 48 hrs by sulforhodamine B assay; conditions: OVCAR-5, 48 h; for CC50: read-out: LC50 (the source's name)
[14] = Growth inhibition of human LOXIMVI cells after 48 hrs by sulforhodamine B assay; conditions: LOX IMVI
SNB-75 [15] = assay: Growth inhibition of human SNB75 cells after 48 hrs by sulforhodamine B assay; conditions: SNB-75, 48 h; for CC50: read-out: LC50 (the source's name)
SNB-19 [16] = assay: Growth inhibition of human SNB19 cells after 48 hrs by sulforhodamine B assay; conditions: SNB-19, 48 h; for CC50: read-out: LC50 (the source's name)
[17] = Growth inhibition of human HCT15 cells after 48 hrs by sulforhodamine B assay; conditions: HCT-15, 48 h; for CC50: read-out: LC50 (the source's name)
NCI-H226 = assay: Growth inhibition of human NCI-H226 cells after 48 hrs by sulforhodamine B assay; conditions: NCI-H226, 48 h; for CC50: read-out: LC50 (the source's name)
HOP-62 [18] = assay: Growth inhibition of human HOP62 cells after 48 hrs by sulforhodamine B assay; conditions: HOP-62, 48 h; for CC50: read-out: LC50 (the source's name)
[19] = Growth inhibition of human BT549 cells assessed as cell growth at 10^-4 M after 48 hrs by sulforhodamine B assay; conditions: BT-549, 48 h, read-out: Activity
Malme-3M [20] = assay: Growth inhibition of human MALME-3M cells assessed as cell growth at 10^-7 M after 48 hrs by sulforhodamine B assay; conditions: read-out: Activity
SNB-19 [21] = assay: Growth inhibition of human SNB19 cells assessed as cell growth at 10^-7 M after 48 hrs by sulforhodamine B assay; conditions: SNB-19, 48 h, read-out: Activity
[22] = Growth inhibition of human SF295 cells assessed as cell growth at 10^-7 M after 48 hrs by sulforhodamine B assay; conditions: SF-295, 48 h, read-out: Activity
SW-620 = assay: Growth inhibition of human SW620 cells assessed as cell growth at 10^-7 M after 48 hrs by sulforhodamine B assay; conditions: SW-620, 48 h, read-out: Activity
[23] = Growth inhibition of human HOP92 cells assessed as cell growth at 10^-7 M after 48 hrs by sulforhodamine B assay; conditions: HOP-92, 48 h, read-out: Activity
T47D = assay: Growth inhibition of human T47D cells assessed as cell growth at 10^-8 M after 48 hrs by sulforhodamine B assay; conditions: for growth at 0.01 µM: read-out: Activity; for CC50: read-out: pLC50 (the source's name) (converted); for TGI: read-out: pTGI (converted)
[24] = Growth inhibition of human OVCAR3 cells assessed as cell growth at 10^-8 M after 48 hrs by sulforhodamine B assay; conditions: OVCAR-3, 48 h; for growth at 0.01 µM: read-out: Activity; for TGI: read-out: pTGI (converted)

SMILES: Cc1ccc(S(=O)(=O)N2C/C(=C\c3cc(F)cc(F)c3)C(=O)/C(=C/c3cc(F)cc(F)c3)C2)cc1
- growth at 1 µM [1]: 16%
- growth at 1 µM [2]: -38%
- growth at 1 µM (Malme-3M [3]): -15%
- growth at 1 µM [4]: 61%
- growth at 1 µM (HCT-116): -32%
- growth at 1 µM (HOP-62 [5]): 93%
- growth at 0.1 µM (MCF7): 62%
- growth at 0.1 µM (A498): 93%
- growth at 1 µM (MDA-MB-468): 22%
- growth at 1 µM (MDA-MB-231): -11%
- growth at 1 µM (ACHN): -26%
- growth at 1 µM [6]: 19%
- growth at 1 µM [7]: 15%
- growth at 100 µM [8]: -81%
- growth at 100 µM [9]: -98%
- growth at 100 µM (SNB-75 [10]): -86%
- growth at 100 µM (NCI-H322M): -44%
- GI50 (M14): 363 nM
- growth at 0.01 µM (M14): 103%
- CC50 (M14): 5890 nM
- TGI (M14): 1410 nM
- GI50 (HOP-62 [11]): 2040 nM
- LC50 (concentration killing 50% of cells) (HOP-62 [11]): 11700 nM
- growth at 0.01 µM (HOP-62 [11]): 98%
- TGI (HOP-62 [11]): 4680 nM
- GI50 [12]: 301 nM
- TGI [12]: 1770 nM
- CC50 [12]: 16300 nM
- GI50 [13]: 1020 nM
- TGI [13]: 2750 nM
- CC50 [13]: 7400 nM
- GI50 [14]: 175 nM
- TGI [14]: 339 nM
- CC50 ([14]; read-out: LC50 (the source's name)): 656 nM
- GI50 (SNB-75 [15]): 1990 nM
- TGI (SNB-75 [15]): 5900 nM
- CC50 (SNB-75 [15]): 26200 nM
- GI50 (SNB-19 [16]): 220 nM
- TGI (SNB-19 [16]): 752 nM
- CC50 (SNB-19 [16]): 2820 nM
- GI50 [17]: 250 nM
- TGI [17]: 1300 nM
- CC50 [17]: 30700 nM
- GI50 (NCI-H226): 8620 nM
- TGI (NCI-H226): 39600 nM
- CC50 (NCI-H226): > 100000 nM
- GI50 (HOP-62 [18]): 2040 nM
- TGI (HOP-62 [18]): 4640 nM
- CC50 (HOP-62 [18]): 11900 nM
- growth at 100 µM [19]: -95%
- growth at 0.1 µM (Malme-3M [20]): 101%
- growth at 0.1 µM (SNB-19 [21]): 82%
- growth at 0.1 µM [22]: 92%
- growth at 0.1 µM (SW-620): 42%
- growth at 0.1 µM [23]: 69%
- GI50 (T47D): 1780 nM
- growth at 0.01 µM (T47D): 96%
- CC50 (T47D): 53700 nM
- TGI (T47D): 6030 nM
- GI50 [24]: 437 nM
- LC50 [24]: 4570 nM
- growth at 0.01 µM [24]: 110%
- TGI [24]: 1450 nM

SMILES: O=C1/C(=C/c2ccc(Cl)cc2Cl)CN(S(=O)(=O)c2ccccc2)C/C1=C\c1ccc(Cl)cc1Cl
- growth at 1 µM [1]: -10%
- growth at 1 µM [2]: 45%
- growth at 1 µM (Malme-3M [3]): 123%
- growth at 1 µM [4]: 22%
- growth at 1 µM (HCT-116): -56%
- growth at 1 µM (HOP-62 [5]): 5%
- growth at 0.1 µM (MCF7): 84%
- growth at 0.1 µM (A498): 61%
- growth at 1 µM (MDA-MB-468): 55%
- growth at 1 µM (MDA-MB-231): 26%
- growth at 1 µM (ACHN): 47%
- growth at 1 µM [6]: 54%
- growth at 1 µM [7]: -2%
- growth at 100 µM [8]: 15%
- growth at 100 µM [9]: -48%
- growth at 100 µM (SNB-75 [10]): -33%
- growth at 100 µM (NCI-H322M): -11%
- GI50 (M14): 3630 nM
- growth at 0.01 µM (M14): 102%
- CC50 (M14): > 100000 nM
- TGI (M14): > 100000 nM
- GI50 (HOP-62 [11]): 389 nM
- LC50 (concentration killing 50% of cells) (HOP-62 [11]): > 100000 nM
- growth at 0.01 µM (HOP-62 [11]): 103%
- TGI (HOP-62 [11]): > 100000 nM
- GI50 [12]: 286 nM
- TGI [12]: 958 nM
- CC50 [12]: > 100000 nM
- GI50 [13]: 2130 nM
- TGI [13]: 7430 nM
- CC50 [13]: > 100000 nM
- GI50 [14]: 203 nM
- TGI [14]: 508 nM
- GI50 (SNB-75 [15]): 432 nM
- TGI (SNB-75 [15]): 7290 nM
- CC50 (SNB-75 [15]): > 100000 nM
- GI50 (SNB-19 [16]): 313 nM
- TGI (SNB-19 [16]): 2880 nM
- CC50 (SNB-19 [16]): > 100000 nM
- GI50 [17]: 247 nM
- TGI [17]: 759 nM
- CC50 [17]: > 100000 nM
- GI50 (NCI-H226): 1040 nM
- TGI (NCI-H226): 2870 nM
- CC50 (NCI-H226): 7920 nM
- GI50 (HOP-62 [18]): 385 nM
- TGI (HOP-62 [18]): > 100000 nM
- CC50 (HOP-62 [18]): > 100000 nM
- growth at 100 µM [19]: -42%
- growth at 0.1 µM (Malme-3M [20]): 129%
- growth at 0.1 µM (SNB-19 [21]): 89%
- growth at 0.1 µM [22]: 93%
- growth at 0.1 µM (SW-620): 96%
- growth at 0.1 µM [23]: 77%
- GI50 (T47D): 1260 nM
- growth at 0.01 µM (T47D): 99%
- CC50 (T47D): > 100000 nM
- TGI (T47D): 100000 nM
- GI50 [24]: 309 nM
- LC50 [24]: 5010 nM
- growth at 0.01 µM [24]: 112%
- TGI [24]: 813 nM
